# Laboratory results reported in PubChem BioAssay AID1963438 (Molecular Pharmacology Branch, DTP, NCI, 2024).
# “And” between values parts separate entries of the source, which are not always exact repeats. Equal values may be shown once.
# Test system: NCI-H510 multicellular tumor spheroid growth, % test/control
# Test: Anticancer human tumor NCI-H510 cell line growth inhibition [Asc];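 also: spheroids exposed to agents for 7 days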;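 as to viability, T/C: 100% = DMSO vehicle control wells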
# Settings: for viability, T/C: stronger effect = lower value
# Outline: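 Stromal components (HUVEC and hMSC) are co-assembled with the cancer cells into multicellular spheroids. Drugs are then added singly or paired, at concentrations falling by half-log increments from a clinically achievable maximum, capped at 10 microM without known Cmax.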
# [1] = curve of first compound, second compound 0.01 µM
# [2] = curve of first compound, second compound 0.0316 µM
# [3] = curve of first compound, second compound 0.1 µM
# [4] = curve of first compound, second compound 0.316 µM
# [5] = curve of first compound, second compound 1 µM
# [6] = second compound 0.01 µM, first compound 0.00316 µM
# [7] = second compound 0.01 µM, first compound 0.01 µM
# [8] = second compound 0.01 µM, first compound 0.0316 µM
# [9] = second compound 0.01 µM, first compound 0.1 µM
# [10] = second compound 0.0316 µM, first compound 0.00316 µM
# [11] = second compound 0.0316 µM, first compound 0.01 µM
# [12] = second compound 0.0316 µM, first compound 0.0316 µM
# [13] = second compound 0.0316 µM, first compound 0.1 µM
# [14] = second compound 0.1 µM, first compound 0.00316 µM
# [15] = second compound 0.1 µM, first compound 0.01 µM
# [16] = second compound 0.1 µM, first compound 0.0316 µM
# [17] = second compound 0.1 µM, first compound 0.1 µM
# [18] = second compound 0.1 µM, first compound 0.316 µM
# [19] = second compound 0.1 µM, first compound 1 µM
# [20] = second compound 0.316 µM, first compound 0.00316 µM
# [21] = second compound 0.316 µM, first compound 0.01 µM
# [22] = second compound 0.316 µM, first compound 0.0316 µM
# [23] = second compound 0.316 µM, first compound 0.1 µM
# [24] = second compound 0.316 µM, first compound 0.316 µM
# [25] = second compound 0.316 µM, first compound 1 µM
# [26] = second compound 1 µM, first compound 0.00316 µM
# [27] = second compound 1 µM, first compound 0.01 µM
# [28] = second compound 1 µM, first compound 0.0316 µM
# [29] = second compound 1 µM, first compound 0.1 µM
# [30] = second compound 1 µM, first compound 0.316 µM
# [31] = second compound 1 µM, first compound 1 µM
# [32] = second compound 0.1 µM, first compound 0.000316 µM
# [33] = second compound 0.1 µM, first compound 0.001 µM
# [34] = second compound 0.316 µM, first compound 0.000316 µM
# [35] = second compound 0.316 µM, first compound 0.001 µM
# [36] = second compound 1 µM, first compound 0.000316 µM
# [37] = second compound 1 µM, first compound 0.001 µM
# [38] = curve of first compound, second compound 3.16 µM
# [39] = curve of first compound, second compound 10 µM
# [40] = second compound 3.16 µM, first compound 0.0316 µM
# [41] = second compound 3.16 µM, first compound 0.1 µM
# [42] = second compound 10 µM, first compound 0.0316 µM
# [43] = second compound 10 µM, first compound 0.1 µM
structure (smiles),measurement,setting,value
O=C(c1ccc(F)c(F)c1Nc1ccc(I)cc1F)N1CC(O)([C@@H]2CCCCN2)C1,"viability, T/C",compound 0.00316 µM,80.5% and 85.3% and 98%
same,"viability, T/C",compound 0.01 µM,119% and 91% and 90.4%
same,"viability, T/C",compound 0.0316 µM,95.7% and 106% and 86.9%
same,"viability, T/C",compound 0.1 µM,97.4% and 102% and 86.8%
same,"viability, T/C",compound 0.316 µM,110% and 89% and 87.3%
same,"viability, T/C",compound 1 µM,72.5% and 86% and 83.7%
same,IC50,curve of compound,> 1000 nM
COc1c(OCCCN2CCOCC2)ccc2c3n(c(=NC(=O)c4cnc(N)nc4)nc12)CCN3 + CNC(C)C(=O)NC1CN(S(=O)(=O)c2cccc(S(=O)(=O)N3CCC4CCC(C(=O)NC(c5ccccc5)c5ccccc5)N4C(=O)C(NC(=O)C(C)NC)C3)c2)CCC2CCC(C(=O)NC(c3ccccc3)c3ccccc3)N2C1=O,IC50,[1],> 1000 nM
same,IC50,[2],> 1000 nM
same,IC50,[3],> 1000 nM
same,IC50,[4],> 1000 nM
same,IC50,[5],> 1000 nM
same,"viability, T/C",[6],119%
same,"viability, T/C",[7],104%
same,"viability, T/C",[8],118%
same,"viability, T/C",[9],130%
same,"viability, T/C","second compound 0.01 µM, first compound 0.316 µM",127%
same,"viability, T/C","second compound 0.01 µM, first compound 1 µM",128%
same,"viability, T/C",[10],106%
same,"viability, T/C",[11],114%
same,"viability, T/C",[12],125%
same,"viability, T/C",[13],117%
same,"viability, T/C","second compound 0.0316 µM, first compound 0.316 µM",120%
same,"viability, T/C","second compound 0.0316 µM, first compound 1 µM",113%
same,"viability, T/C",[14],92.2%
same,"viability, T/C",[15],109%
same,"viability, T/C",[16],106%
same,"viability, T/C",[17],128%
same,"viability, T/C",[18],112%
same,"viability, T/C",[19],125%
same,"viability, T/C",[20],115%
same,"viability, T/C",[21],104%
same,"viability, T/C",[22],108%
same,"viability, T/C",[23],105%
same,"viability, T/C",[24],121%
same,"viability, T/C",[25],109%
same,"viability, T/C",[26],107%
same,"viability, T/C",[27],113%
same,"viability, T/C",[28],112%
same,"viability, T/C",[29],139%
same,"viability, T/C",[30],116%
same,"viability, T/C",[31],110%
NC1CCC(NC2CC2c2ccccc2)CC1 (centres undefined) + CNC(C)C(=O)NC1CN(S(=O)(=O)c2cccc(S(=O)(=O)N3CCC4CCC(C(=O)NC(c5ccccc5)c5ccccc5)N4C(=O)C(NC(=O)C(C)NC)C3)c2)CCC2CCC(C(=O)NC(c3ccccc3)c3ccccc3)N2C1=O,IC50,[1],> 100 nM
same,IC50,[2],> 100 nM
same,IC50,[3],> 100 nM
same,IC50,[4],> 100 nM
same,IC50,[5],> 100 nM
same,"viability, T/C","second compound 0.01 µM, first compound 0.000316 µM",85.6%
same,"viability, T/C","second compound 0.01 µM, first compound 0.001 µM",105%
same,"viability, T/C",[6],97.4%
same,"viability, T/C",[7],90%
same,"viability, T/C",[8],105%
same,"viability, T/C",[9],94.3%
same,"viability, T/C","second compound 0.0316 µM, first compound 0.000316 µM",98.7%
same,"viability, T/C","second compound 0.0316 µM, first compound 0.001 µM",96.7%
same,"viability, T/C",[10],92.3%
same,"viability, T/C",[11],91.6%
same,"viability, T/C",[12],96.9%
same,"viability, T/C",[13],94.9%
same,"viability, T/C",[32],107%
same,"viability, T/C",[33],97.4%
same,"viability, T/C",[14],91.2%
same,"viability, T/C",[15],89.8%
same,"viability, T/C",[16],96.9%
same,"viability, T/C",[17],97.7%
same,"viability, T/C",[34],99%
same,"viability, T/C",[35],106%
same,"viability, T/C",[20],91%
same,"viability, T/C",[21],99.9%
same,"viability, T/C",[22],102%
same,"viability, T/C",[23],97.8%
same,"viability, T/C",[36],114%
same,"viability, T/C",[37],106%
same,"viability, T/C",[26],97.9%
same,"viability, T/C",[27],98.1%
same,"viability, T/C",[28],94.3%
same,"viability, T/C",[29],101%
C=C(F)C(=O)N1CCN(c2nc(OCC3CCCN3C)nc3c2CCN(c2cccc4cccc(Cl)c24)C3)CC1CC#N (centres undefined),"viability, T/C",compound 0.0316 µM,109% and 85.9% and 108%
same,"viability, T/C",compound 0.1 µM,87.2% and 84.2% and 92%
same,"viability, T/C",compound 0.316 µM,72.8% and 84.8% and 97.8%
same,"viability, T/C",compound 1 µM,67.5% and 68.6% and 102%
same,"viability, T/C",compound 3.16 µM,1.87% and 8.13% and 16.5%
same,"viability, T/C",compound 10 µM,0.2% and 0.21% and 0.25%
same,IC50,curve of compound,1340 nM and 1420 nM and 1990 nM
Cn1ncnc1[C@H]1c2n[nH]c(=O)c3cc(F)cc(c23)N[C@@H]1c1ccc(F)cc1 + Cc1c(S(C)(=O)=O)c(-c2cc(F)cc(N3CCN(c4ccc(NS(=O)(=O)c5ccc(NC(CCN6CCC(C(=O)OCCCP(=O)(O)O)CC6)CSc6ccccc6)c(S(=O)(=O)C(F)(F)F)c5)cc4)CC3)c2)c(-c2ccc(Cl)cc2)n1C(C)C,IC50,[3],8.46 nM
same,IC50,[4],9.32 nM
same,IC50,[5],4.76 nM
same,IC50,[38],6.9 nM
same,IC50,[39],5 nM
same,"viability, T/C",[32],88%
same,"viability, T/C",[33],101%
same,"viability, T/C",[14],58.5%
same,"viability, T/C",[15],58.2%
same,"viability, T/C",[16],9.67%
same,"viability, T/C",[17],7.11%
same,"viability, T/C",[34],106%
same,"viability, T/C",[35],70.3%
same,"viability, T/C",[20],101%
same,"viability, T/C",[21],47.3%
same,"viability, T/C",[22],5.08%
same,"viability, T/C",[23],5.01%
same,"viability, T/C",[36],96.2%
same,"viability, T/C",[37],91.8%
same,"viability, T/C",[26],68.7%
same,"viability, T/C",[27],16.2%
same,"viability, T/C",[28],2.54%
same,"viability, T/C",[29],2.95%
same,"viability, T/C","second compound 3.16 µM, first compound 0.000316 µM",96.9%
same,"viability, T/C","second compound 3.16 µM, first compound 0.001 µM",79.8%
same,"viability, T/C","second compound 3.16 µM, first compound 0.00316 µM",92.3%
same,"viability, T/C","second compound 3.16 µM, first compound 0.01 µM",31.1%
same,"viability, T/C",[40],12.2%
same,"viability, T/C",[41],2.55%
same,"viability, T/C","second compound 10 µM, first compound 0.000316 µM",92.6%
same,"viability, T/C","second compound 10 µM, first compound 0.001 µM",88.9%
same,"viability, T/C","second compound 10 µM, first compound 0.00316 µM",81.9%
same,"viability, T/C","second compound 10 µM, first compound 0.01 µM",1.81%
same,"viability, T/C",[42],1.16%
same,"viability, T/C",[43],1.64%
C#Cc1c(F)ccc2cc(O)cc(-c3ncc4c(N5CC6CCC(C5)N6)nc(OCC56CCCN5CC(F)C6)nc4c3F)c12 (centres undefined) + Cc1c(S(C)(=O)=O)c(-c2cc(F)cc(N3CCN(c4ccc(NS(=O)(=O)c5ccc(NC(CCN6CCC(C(=O)OCCCP(=O)(O)O)CC6)CSc6ccccc6)c(S(=O)(=O)C(F)(F)F)c5)cc4)CC3)c2)c(-c2ccc(Cl)cc2)n1C(C)C,IC50,[3],> 10000 nM
same,IC50,[4],> 10000 nM
same,IC50,[5],> 10000 nM
same,IC50,[38],> 10000 nM
same,IC50,[39],6600 nM
same,"viability, T/C",[16],119%
same,"viability, T/C",[17],121%
same,"viability, T/C",[18],103%
same,"viability, T/C",[19],81.1%
same,"viability, T/C","second compound 0.1 µM, first compound 3.16 µM",93.4%
same,"viability, T/C","second compound 0.1 µM, first compound 10 µM",109%
same,"viability, T/C",[22],112%
same,"viability, T/C",[23],104%
same,"viability, T/C",[24],105%
same,"viability, T/C",[25],91.7%
same,"viability, T/C","second compound 0.316 µM, first compound 3.16 µM",89.9%
same,"viability, T/C","second compound 0.316 µM, first compound 10 µM",73%
same,"viability, T/C",[28],105%
same,"viability, T/C",[29],121%
same,"viability, T/C",[30],119%
same,"viability, T/C",[31],109%
same,"viability, T/C","second compound 1 µM, first compound 3.16 µM",108%
same,"viability, T/C","second compound 1 µM, first compound 10 µM",73%
same,"viability, T/C",[40],108%
same,"viability, T/C",[41],101%
same,"viability, T/C","second compound 3.16 µM, first compound 0.316 µM",110%
same,"viability, T/C","second compound 3.16 µM, first compound 1 µM",115%
same,"viability, T/C","second compound 3.16 µM, first compound 3.16 µM",109%
same,"viability, T/C","second compound 3.16 µM, first compound 10 µM",77%
same,"viability, T/C",[42],102%
same,"viability, T/C",[43],89.3%
same,"viability, T/C","second compound 10 µM, first compound 0.316 µM",113%
same,"viability, T/C","second compound 10 µM, first compound 1 µM",70.3%
same,"viability, T/C","second compound 10 µM, first compound 3.16 µM",74.3%
same,"viability, T/C","second compound 10 µM, first compound 10 µM",38.5%
